Our source for the IC50 values is patent US20190134005A1 (BioMarin Pharmaceutical Inc., priority 2016, published 2019).

The structures appear in SMILES notation. A value given as a limit tells only on which side of the number the result lay.

In the assay the target is T1, human CGT (Homo sapiens, UniProt Q16880).
T1 sequence (Q16880 21-541): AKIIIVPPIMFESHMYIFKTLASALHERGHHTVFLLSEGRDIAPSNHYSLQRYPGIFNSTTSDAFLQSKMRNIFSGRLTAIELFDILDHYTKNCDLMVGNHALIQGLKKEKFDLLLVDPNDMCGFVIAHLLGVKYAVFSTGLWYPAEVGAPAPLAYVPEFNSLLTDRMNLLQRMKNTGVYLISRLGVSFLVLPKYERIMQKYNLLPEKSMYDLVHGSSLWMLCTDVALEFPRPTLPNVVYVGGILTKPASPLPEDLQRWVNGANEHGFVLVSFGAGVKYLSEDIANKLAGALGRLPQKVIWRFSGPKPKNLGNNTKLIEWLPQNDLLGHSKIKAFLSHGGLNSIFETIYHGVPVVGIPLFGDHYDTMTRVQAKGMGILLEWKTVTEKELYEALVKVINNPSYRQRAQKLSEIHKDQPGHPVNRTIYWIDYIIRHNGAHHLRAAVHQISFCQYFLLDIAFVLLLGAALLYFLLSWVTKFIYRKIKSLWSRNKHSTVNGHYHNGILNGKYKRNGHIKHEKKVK
As to the kind of experiment: Assay 1: CGT Enzymatic Assay (RapidFire/MS/MS, 0.01% Tween 80). The note with it: Table 1, Compounds of Formula (I) and Formula (II); CGT enzymatic assay; read-out: IC50. It is filed as biochemical.

As for `COC[C@H]1N(c2ccc(Cl)cc2)C(=O)N(c2ccc(Cl)cc2)C1(O)c1cccc(OC(F)F)c1` (stereo partly drawn) [Compound 238-2, (5R)-1,3-bis(4-chlorophenyl)-4-(3-(difluoromethoxy)phenyl)-4-hydroxy-5-(methoxymethyl)imidazolidin-2-one], the IC50 is below 1000 nM. Then `Cc1ccc(N2C(=O)N(c3ccc(C)cc3)C(O)(c3cccc(OC(F)(F)F)c3)C23CCC3)cc1` (centres unmarked) [Compound 239, 8-hydroxy-5,7-di-p-tolyl-8-(3-(trifluoromethoxy)phenyl)-5,7-diazaspiro[3.4]octan-6-one], with below 1000 nM; and `O=C1N(c2ccc(Cl)cc2)C2(CC(F)C2)C(O)(c2cccc(OC(F)(F)F)c2)N1c1ccc(Cl)cc1` (centres unmarked) [Compound 240, 5,7-bis(4-chlorophenyl)-2-fluoro-8-hydroxy-8-(3-(trifluoromethoxy)phenyl)-5,7-diazaspiro[3.4]octan-6-one], with below 1000 nM; and `COc1ccc(N2C(=O)N(c3ccc(OC)cc3)C(O)(c3cccc(OC(F)(F)F)c3)C2(C)C)cc1` (centres unmarked) [Compound 241, 4-hydroxy-1,3-bis(4-methoxyphenyl)-5,5-dimethyl-4-(3-(trifluoromethoxy)phenyl)imidazolidin-2-one], with below 1000 nM.

In the case of `O=C1N(c2ccc(Cl)cc2)C2(CCC2)C(O)(c2cccc(OC(F)(F)F)c2)N1c1ccc(Cl)cc1` (centres unmarked) [Compound 242, 5,7-bis(4-chlorophenyl)-8-hydroxy-8-(3-(trifluoromethoxy)phenyl)-5,7-diazaspiro[3.4]octan-6-one], the IC50 was below 1000 nM. As for `CCCc1c(-c2cccc(C(F)(F)F)c2)n(-c2ccc(Cl)cc2)c(=O)n1-c1ccc(Cl)cc1` [Compound 243, 1,3-bis(4-chlorophenyl)-4-propyl-5-(3-(trifluoromethyl)phenyl)-1,3-dihydro-2H-imidazol-2-one], the figure is 1000 to 10000 nM; as for `CCCc1c(-c2cccc(CC)c2)n(-c2ccc(Cl)cc2)c(=O)n1-c1ccc(Cl)cc1` [Compound 244, 1,3-bis(4-chlorophenyl)-4-(3-ethylphenyl)-5-propyl-1,3-dihydro-2H-imidazol-2-one], 1000 to 10000 nM; as for `CCCc1c(-c2cccc(OC(F)(F)F)c2)n(-c2ccc(Cl)cc2)c(=O)n1-c1ccc(Cl)cc1` [Compound 245, 1,3-bis(4-chlorophenyl)-4-propyl-5-(3-(trifluoromethoxy)phenyl)-1,3-dihydro-2H-imidazol-2-one], below 1000 nM.

For `Cc1c(-c2cccc(Br)c2)n(-c2ccc(Cl)cc2)c(=O)n1-c1ccc(Cl)cc1` [Compound 246, 4-(3-bromophenyl)-1,3-bis(4-chlorophenyl)-5-methyl-1,3-dihydro-2H-imidazol-2-one], the IC50 was below 1000 nM. Then `CCc1c(-c2cccc(OC(F)(F)F)c2)n(-c2ccc(Cl)cc2)c(=O)n1-c1ccc(Cl)cc1` [Compound 247, 1,3-bis(4-chlorophenyl)-4-ethyl-5-(3-(trifluoromethoxy)phenyl)-1,3-dihydro-2H-imidazol-2-one], with below 1000 nM; and `CCCc1c(-c2cccc(OC(F)(F)F)c2)n(-c2ccc(Br)cc2)c(=O)n1-c1ccc(Br)cc1` [Compound 248, 1,3-bis(4-bromophenyl)-4-propyl-5-(3-(trifluoromethoxy)phenyl)-1,3-dihydro-2H-imidazol-2-one], with below 1000 nM. With `O=c1n(-c2ccc(Br)cc2)c(-c2ccccc2)c(C2CC2)n1-c1ccc(Br)cc1` [Compound 249, 1,3-bis(4-bromophenyl)-4-cyclopropyl-5-phenyl-1,3-dihydro-2H-imidazol-2-one], the IC50 was below 1000 nM.

For `CCCc1c(-c2cccc(Cl)c2)n(-c2ccc(Br)cc2)c(=O)n1-c1ccc(Br)cc1` [Compound 250, 1,3-bis(4-bromophenyl)-4-(3-chlorophenyl)-5-propyl-1,3-dihydro-2H-imidazol-2-one], the IC50 was below 1000 nM. As for `CCc1c(-c2cccc(C#N)c2)n(-c2ccc(F)cc2)c(=O)n1-c1ccc(F)cc1` [Compound 252, 3-(5-ethyl-1,3-bis(4-fluorophenyl)-2-oxo-2,3-dihydro-1H-imidazol-4-yl)benzonitrile], the figure is 1000 to 10000 nM; as for `CC(=O)c1cccc(-c2c(C)n(-c3ccc(Cl)cc3)c(=O)n2-c2ccc(Cl)cc2)c1` [Compound 253, 4-(3-acetylphenyl)-1,3-bis(4-chlorophenyl)-5-methyl-1,3-dihydro-2H-imidazol-2-one], 1000 to 10000 nM; as for `O=c1n(-c2ccc(Cl)cc2)c(-c2cccc(Cl)c2)c(C2CCCO2)n1-c1ccc(Cl)cc1` (centres unmarked) [Compound 254, 4-(3-chlorophenyl)-1,3-bis(4-chlorophenyl)-5-(tetrahydrofuran-2-yl)-1,3-dihydro-2H-imidazol-2-one], 1000 to 10000 nM.

As for `O=c1n(-c2ccc(Br)cc2)cc(-c2ccc[nH]2)n1-c1ccc(Br)cc1` [Compound 256, 1,3-bis(4-bromophenyl)-4-(1H-pyrrol-2-yl)-1,3-dihydro-2H-imidazol-2-one], the IC50 was above 50000 nM. Take `Cc1c(-c2ccccc2)n(-c2ccc(Br)cc2)c(=O)n1-c1ccc(Br)cc1` [Compound 257, 1,3-bis(4-bromophenyl)-4-methyl-5-phenyl-1,3-dihydro-2H-imidazol-2-one]: the IC50 is below 1000 nM. Then `CCc1c(-c2cccc(C#N)c2)n(-c2ccc(Cl)cc2)c(=O)n1-c1ccc(Cl)cc1` [Compound 258, 3-(1,3-bis(4-chlorophenyl)-5-ethyl-2-oxo-2,3-dihydro-1H-imidazol-4-yl)benzonitrile], with below 1000 nM; and `Cc1cccc(-c2cn(-c3ccc(Cl)cc3)c(=O)n2-c2ccc(Cl)cc2)c1` [Compound 259, 1,3-bis(4-chlorophenyl)-4-(m-tolyl)-1,3-dihydro-2H-imidazol-2-one], with above 50000 nM; and `Cc1cccc(-c2c(C)n(-c3ccc(Cl)cc3)c(=O)n2-c2ccc(Cl)cc2)c1` [Compound 260, 1,3-bis(4-chlorophenyl)-4-methyl-5-(m-tolyl)-1,3-dihydro-2H-imidazol-2-one], with 1000 to 10000 nM. As for `CCCc1c(-c2ccccc2)n(-c2ccc(Br)cc2)c(=O)n1-c1ccc(Br)cc1` [Compound 261, 1,3-bis(4-bromophenyl)-4-phenyl-5-propyl-1,3-dihydro-2H-imidazol-2-one], the figure is 1000 to 10000 nM; as for `Cc1c(-c2cccc(OC(F)(F)F)c2)n(-c2ccc(Br)cc2)c(=O)n1-c1ccc(Br)cc1` [Compound 262, 1,3-bis(4-bromophenyl)-4-methyl-5-(3-(trifluoromethoxy)phenyl)-1,3-dihydro-2H-imidazol-2-one], 1000 to 10000 nM; as for `Cc1cccc(-c2c(C)n(-c3ccc(Br)cc3)c(=O)n2-c2ccc(Br)cc2)c1` [Compound 263, 1,3-bis(4-bromophenyl)-4-methyl-5-(m-tolyl)-1,3-dihydro-2H-imidazol-2-one], 1000 to 10000 nM. Then `CCc1c(-c2ccccc2)n(-c2ccc(Br)cc2)c(=O)n1-c1ccc(Br)cc1` [Compound 264, 1,3-bis(4-bromophenyl)-4-ethyl-5-phenyl-1,3-dihydro-2H-imidazol-2-one], with below 1000 nM; and `N#Cc1cc(Cl)cc(-c2cn(-c3ccc(Cl)cc3)c(=O)n2-c2ccc(Cl)cc2)c1` [Compound 265, 3-(1,3-bis(4-chlorophenyl)-2-oxo-2,3-dihydro-1H-imidazol-4-yl)-5-chlorobenzonitrile], with above 50000 nM.

What is called IC50 is the concentration at which inhibition is half-maximal.
